Results: patent US5922891A, “2-substituted 1,8-dihydroxy-9(10H)-anthracenone pharmaceuticals” (priority 1997, dated 1999)
Like-named read-outs stand apart in the source and are kept apart here.

Key:
[1] = test system: HaCaT cells; assay: Antiproliferative activity against HaCaT cells (human keratinocyte cell line); assay type: cell-based; conditions: 48 h, read-out: AA IC50 (antiproliferative activity)
Protocol: HaCaT cells were grown in Dulbecco's modified Eagle's medium (DMEM, No. 041-11954A, Gibco) supplemented with 10% fetal calf serum, penicillin (100 U/mL), and streptomycin (100 μg/mL) in a humidified incubator containing 8% CO2 at 37° C. Cells (2.5·10^4 /1.1 ml per well) were seeded on 24-well multidishes and grown in DMEM. After 24 hours of growth, the medium was replaced with fresh medium and a test compound (0.1-5 μM) was added from freshly made stock solutions, which were prepared in DMSO and diluted with DMEM. The final concentration of DMSO in the culture medium was 0.2%. Controls were performed using DMSO or medium alone. Forty-eight hours after addition of a test compound to the culture, the medium was removed and each well was rinsed with phosphate-buffered saline (PBS, 100 μL). The cells were then incubated with sterile 0.5% trypsin, 0.2% EDTA in PBS for 20 minutes at 37° C. The detached cells from each well were suspended in DMEM and dispersed as single cells by gentle pipetting through an Eppendorf pipette. Cell growth was determined directly by counting the keratinocytes on a Neubauer counting chamber using phase contrast microscopy. Inhibition of cell proliferation was calculated by a comparison of the mean value of the test compound (N=3) with the control (N=6-8) activity: (1-test compound/control)×100.

[2] = Deoxyribose degradation as a measure of hydroxyl radical formation; assay type: biochemical; conditions: 75 μM test compound; controls < 0.1
Protocol: ^c Deoxyribose degradation as a measure of hydroxyl radical formation
Indicated values are μmoles of malondialdehyde per mmole of deoxyribos
released by 75 μM test compound (controls < 0.1).
Degradation of deoxyribose provides a measurement of the amount of hydroxyl radical formation caused by the test compounds. The assay used to determine degradation of 2-deoxy-D-ribose followed generally the procedures of Gutteridge, J. M. C., Biochem. J., 224: 761-767 (1984) and Laughton, et al., Biochem. Pharmacol., 38: 2859-2865 (1989). The following reagents were added to glass tubes in the order and at the final concentrations listed. 0.3 mL kH2 PO4 --KOH buffer, pH 7.4 (30 mM), 0.2 ml double distilled H2 O, 0.2 ml 2-deoxy-D-ribose (2 mM), 0.2 ml FeCl3.6H2 O (0.1 mM), 0.1 ml 2-substituted anthracenone ([…]). Stock solutions of each of the 2-substituted anthracenone compounds were made up fresh before use. Appropriate blanks and controls using an acetronitrile vehicle were performed.
Final reaction volumes were standardized to 1.0 ml. The reaction mixtures were incubated for 2 hours at 37° C. in a shaking water bath at 50 rpm. 1 ml of 2.8% (w/v) trichloracetic acid and 1 ml of 1% (w/v in 0.05 N NaOH) 2-thiobarbituric acid (TBA) were added, and the samples were heated at 100° C. for 15 minutes and then cooled in an ice bath (5 minutes). 2 ml of each reaction mixture was treated with 0.05 ml of 36% (w/v) HCl and 2 of 1-butanol, followed by vigorous shaking with a vortex mixer (Heidolph) for 15 seconds. The organic layer was separated by centrifugation at 3000 rpm (15 minutes) and absorbance at 532 nm was measured against butanol. Calibration was performed using a malondialdehyde (MDA) standard prepared by hydrolysis of 1,1,3,3-tetraethoxypropane (Gutteridge, J. M. C., Anal. Biochem., 69: 518-526 (1975). TBA reactive material was expressed in terms of μmol MDA per μmol deoxyribose. The results of the assay are provided in Table I.

[3] = Inhibition of AAPH-induced lipid peroxidation in bovine brain phospholipid liposomes; assay type: biochemical; conditions: AAPH-induced; bovine brain phospholipid liposomes; N = 3 or more; read-out: LPO IC50 (inhibition of lipid peroxidation)
Protocol: Phospholipids were prepared essentially as described by Gutteridge, J. M. C., (Anal. Biochem., 82: 76-82 (1977)). Bovine brain tissue was cooled on ice, freed from blood vessels and washed repeatedly with 0.15 M NaCl, pH 7.4. The tissue was cut into pieces and then macerated with an ultra-turrax, passed through a fine-meshed sieve, and extracted four times with four times the volume of acetone. The extraction mixture was filtered by suction to remove the acetone, the residue dried under vacuum, and then repeatedly extracted with petroleum ether (40-60) using twice the volume of the original brain homogenate. The combined extracts were filtered, dried at 45° C., and dissolved in ether (one fifth the original brain volume). The mixture was treated with five times the volume of acetone, and the resulting precipitate was collected by suction-filtration, dried and stored under N2 at -20° C. in the dark. Bovine brain phospholipids were weighed into glass tubes and shaken in a vortex mixer (Heidolph) in the presence of five small glass beads (.phi. 4 mm) for 1 minute. The phospholipids were suspended in 0.15 M NaCl, pH 7.4, to a final concentration of 5 mg/ml. The mixture was purged with N2 for 1 minute and vigorously dispersed in a vortex mixer for 5 minutes. The liposomes were allowed to swell for 1 hour at 4° C., and vesicles with a mean size of 1-10 μm were obtained according to the method of Bangham, et al., (J. Mol. Biol., 13:238-252 (1965). The liposomes were stimulated with the azo initiator 2 2'-azobis (2-amidinopropane) hydrochloride according to the method of Gutteridge, J. M. C., (Anal. Biochem. 82:76-82 (1977)).
The following reagents were added to the glass tubes containing stimulating bovine brain phospholipid piposomes in the order and at the final concentrations listed: 0.3 ml HK2 PO4 --KOH buffer, pH 7.4 (30 mM), 0.29 ml double distilled H2 O, 0.2 ml liposomes (1 mg/ml), 0.2 ml FeCl3.H2 O (0.1 mM), 0.01 ml 2-substituted anthracenone compound of the invention (variable concentrations).
Appropriate blanks and controls using the vehicle (acetone) were conducted. The final reaction volumes were standardized to 1.0 ml. The reaction mixtures were incubated for 1 hour at 37° C. in a shaking water bath. […] of 20% (w/v) BHT, 0.5 ml 25% (w/v) HCl and 0.5 ml of 1% 2-thiobarbituric acid were added and the samples were heated at 100° C. for 15 minutes and then cooled in an ice bath (5 minutes). 2 ml of 1-butanol were added and the mixtures were vigorously shaken in a vortex mixer (Heidolph) for 15 seconds. The organic layer was separated by centrifugation at 3000 rpm (15 minutes) and absorbance at 532 nm was measured against butanol.

[4] = molecular target: T1, 5-LO in bovine PMNL (Bos taurus, UniProt F1MQ78); assay: Inhibition of 5-lipoxygenase (5-HETE and LTB4 biosynthesis) in Ca-ionophore-stimulated bovine PMNL; assay type: cell-based
T1 construct: The purified PMNLs were suspended at a concentration of; endogenous in cells; host or cells: polymorphonuclear leukocytes isolated from bovine blood
T1 sequence (F1MQ78 1-674): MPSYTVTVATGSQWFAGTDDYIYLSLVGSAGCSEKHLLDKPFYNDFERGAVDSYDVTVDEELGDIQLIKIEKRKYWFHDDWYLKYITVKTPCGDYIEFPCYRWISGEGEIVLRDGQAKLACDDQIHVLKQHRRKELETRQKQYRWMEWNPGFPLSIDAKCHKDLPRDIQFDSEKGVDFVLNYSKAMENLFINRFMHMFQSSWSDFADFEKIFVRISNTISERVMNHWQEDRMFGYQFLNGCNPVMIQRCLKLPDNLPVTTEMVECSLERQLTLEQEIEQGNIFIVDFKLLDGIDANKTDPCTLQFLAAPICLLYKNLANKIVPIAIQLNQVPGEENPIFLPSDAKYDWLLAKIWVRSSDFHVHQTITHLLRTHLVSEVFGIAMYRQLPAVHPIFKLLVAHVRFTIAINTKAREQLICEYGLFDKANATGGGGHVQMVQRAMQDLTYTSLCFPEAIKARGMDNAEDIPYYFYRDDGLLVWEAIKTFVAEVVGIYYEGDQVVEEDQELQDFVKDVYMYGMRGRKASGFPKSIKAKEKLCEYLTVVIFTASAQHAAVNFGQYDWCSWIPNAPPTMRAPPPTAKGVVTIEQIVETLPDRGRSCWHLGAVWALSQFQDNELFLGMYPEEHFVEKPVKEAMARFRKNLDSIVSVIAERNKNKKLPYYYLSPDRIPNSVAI
Protocol: Briefly, PMNLs were prepared from sodium EDTA-anticoagulated bovine blood, essentially as described by Walstra, P. et al., (Biochem. Biophys. Acta, 795:499-503 (1984)). Contaminating platelets were removed by repeated centrifugations at 100 g for 20 minutes. […] Cell counts were conducted with a Sysmex micro cell counter CC-130. Preincubation was performed with 2.4 ml of the suspension and 10 μl of a DMSO stock solution of test compounds at the desired concentrations in phosphate buffered saline (PBS) or vehicle control (DMSO at final concentration of 0.4%) for 15 minutes at 37° C. in a shaking water bath at 50 rpm. […] The incubation mixture was held on ice bath for 20 minutes and then centrifuged at 4000 g for 5 minutes at 0° C. The supernatant was diluted with 5 ml of water and passed through a prewashed (10 ml of methanol and 5 ml of water, sequentially) octadecylsilane reversed phase cartridge (Baker). The eicosanoids were eluted with 3 ml of methanol, diluted with 3 ml of water and subjected to reversed phase HPLC analysis using a 250×4 mm column packed with Nucleosil C18 (7 μm particles; Bischoff, Leonberg, Germany). The isocratic elution conditions of LTB4 were tetrahydrofuran (THF)/methanol/water/acetic acid (25+30+45+0.1), adjusted to pH 5.5 with concentrated NH3, at a flow rate of 0.9 ml/min (Kontron 420 pump), monitored at 280 nm with a Kontron 735 LC UV detector. 5-HETE was monitored at 232 nm using methanol/water/acetic acid (77+23+0.1), pH 5.5 and a flow rate 1.0 ml/min. Data were recorded on a MacLab data acquisition system (WissTech, Germany) and analysis was performed using the application Peaks on an Apple Macintosh Quadra 700 computer. Integrated areas of the peaks were compared to a PGB2 internal standard and to external standards of authentic samples. Molar absorption coefficients of Samuelsson et al., Borgeat, P. and B. Samuelsson, (Proc. Natl. Acad. Sci. USA, 76:2148-2152 (1979)), were used for making calculations. Inhibition was calculated by a comparison of the mean value of test compound (n=3) with control (n=6-8) activity: (1-test compound/control)×100.
See Walstra, P. et al., Biochem Biophys. Acta, 795:499-503 (1984); and Dannhardt et al. J. Pharm. Pharmacol., 44:419-424 (1992). […] (Schroder, J. M., J. Invest. Dermatol., 87:624-629 (1986); Tanzer, et al., Arch. Pharm. (Weinheim), 324:841-846 (1991)).

[5] = test system: HaCaT cells; conditions: cited from earlier work
[6] = test system: LTB4 production in human neutrophils; conditions: depending on cell density, read-out: IC50, inhibition of LTB4 production, human neutrophils; cited from earlier work
[7] = cited from earlier work
[8] = psoriasis therapy; cited from earlier work

SMILES	IC50 [1] [nM]	DD (deoxyribose degradation, malondialdehyde released) [2]	IC50 [3] [µM]	IC50 ([4]; N = 3 or more) [µM]	IC50 ([4]; comparison with compounds of the invention, read-out: IC50) [µM]	sensitivity of HaCaT cells to antiproliferative action [5]	IC50 [6] [µM]	lipid peroxidation in the presence of iron [7]	side effects of anthralin therapy [8]
CN(O)C(=O)Cc1ccc2c(c1O)C(=O)c1c(O)cccc1C2 [ID, N-Hydroxy-N-methyl-(9,10-dihydro-1,8-dihydroxy-9-oxo-2-anthracene)acetamide]	800	1.67 ± 0.08 μmol of MDA/mmol	29	–	–	–	–	–	–
CC(C)C(C(=O)O)c1ccc2c(c1O)C(=O)c1c(O)cccc1C2 (stereo not shown) [VIIIA, 2-(9,10-Dihydro-1,8-dihydroxy-9-oxo-2-anthracene)-3-methylbutanoic acid]	> 5000	3.58 ± 0.30 μmol of MDA/mmol	155	–	–	–	–	–	–
CCCCOc1ccc(CC(=O)NO)cc1 [bufexamac, reference compound]	> 5000	–	> 200	> 30	> 30	–	–	–	–
O=C1c2c(O)cccc2Cc2cccc(O)c21 [anthralin]	500 to 700	2.89 ± 0.14 μmol of MDA/mmol	–	–	–	extremely sensitive target for the antiproliferative action of anthralin	7 to 74	enhancement of anthralin-induced lipid peroxidation in the presence of iron	increased inflammation and irritation of non-effected skin surrounding treated lesions
O=C(O)CCCCc1ccc2c(c1O)C(=O)c1c(O)cccc1C2 [IVA, 5-(9,10-Dihydro-1,8-dihydroxy-9-oxo-2-anthracene) pentanoic acid]	> 5000	2.62 ± 0.41 μmol of MDA/mmol	105	–	–	–	–	–	–
O=C1c2c(O)cccc2Cc2ccc(C(CCc3ccccc3)C(=O)O)c(O)c21 (stereo not shown) [XA, 2-(9,10-Dihydro-1,8-dihydroxy-9-oxo-2-anthracene)-4-phenylbutanoic acid]	> 5000	2.47 ± 0.16 μmol of MDA/mmol	62	–	–	–	–	–	–
O=C(CCCCc1ccc2c(c1O)C(=O)c1c(O)cccc1C2)NO [IVC, N-Hydroxy-5-(9,10-dihydro-1,8-dihydroxy-9-oxo-2-anthracene)pentanamide]	2000	1.38 ± 0.09 μmol of MDA/mmol	62	–	–	–	–	–	–
CC(C)C(C(=O)N(C)O)c1ccc2c(c1O)C(=O)c1c(O)cccc1C2 (stereo not shown) [VIIID, N-Hydroxy-N-methyl-2-(9,10-dihydro-1,8-dihydroxy-9-oxo-2-anthracene)-3-methylbutanamide]	1500	0.86 ± 0.01 μmol of MDA/mmol	12.5	–	–	–	–	–	–
